ChEMBL document CHEMBL2380252, “Optimized method of G-protein-coupled receptor homology modeling: its application to the discovery of novel CXCR7 ligands” (J Med Chem, 2013)
pIC50: −log10 of the molar value.

What was measured:
[1] = molecular target: T1, Atypical chemokine receptor 3 (Homo sapiens, UniProt P25106); assay: Displacement of [125I]SDF-1alpha from CXCR7 (unknown origin) expressed in CHO cells after 1 hr by TopCount scintillation counting analysis; assay type: cell-based
[2] = molecular target: T1, Atypical chemokine receptor 3; assay: Binding affinity to CXCR7 (unknown origin)

T1 sequence (P25106 whole entry): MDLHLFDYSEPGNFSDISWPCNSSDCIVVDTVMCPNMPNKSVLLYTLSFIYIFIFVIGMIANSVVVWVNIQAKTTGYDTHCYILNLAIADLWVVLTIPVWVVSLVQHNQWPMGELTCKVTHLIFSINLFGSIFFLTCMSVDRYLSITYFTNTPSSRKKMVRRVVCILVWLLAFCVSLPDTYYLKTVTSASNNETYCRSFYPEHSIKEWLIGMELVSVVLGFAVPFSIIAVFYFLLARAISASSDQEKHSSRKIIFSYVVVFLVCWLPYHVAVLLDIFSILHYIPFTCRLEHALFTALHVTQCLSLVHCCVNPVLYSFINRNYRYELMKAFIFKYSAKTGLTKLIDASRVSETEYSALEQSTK

SMILES | pIC50 [1] | pIC50 [2]
CC1CCCCN1CC(O)COc1ccc2c3c(c(=O)oc2c1)CCC3 (stereo not given) | 5.10 | –
CN(C)c1ccc(/C=C2\SC(N3CCN(CCO)CC3)=NC2=O)cc1 | 5.27 | –
Cc1ccc2[nH]c(=O)c3cc(C(=O)NCCN4CCCCCC4)sc3c2c1 | 5.15 | –
CCC(C(=O)NCCCN(CC)Cc1ccccc1)n1nc(C)c2sc3ccccc3c2c1=O (stereo not given) | 5.56 | –
CCN1CCCC1CNC(=O)c1ccc(-n2ccc3ccccc32)s1 (stereo not given) | 5.17 | –
O=C(c1cc2c(s1)-c1ccc(Cl)cc1SC2)N1CCC(N2CCCCC2)CC1 | – | 5.20
Cc1cc(OCC(=O)NC2CCN(Cc3ccccc3)CC2)c2c(C)cc(=O)oc2c1 | 5.83 | –
O=C(c1ccc(N2CCc3ccccc32)s1)N1CCC(N2CCCCC2)CC1 | 5.49 | –
CN(CCCNC(=O)c1cc2c(=O)n(C)c3ccccc3c2s1)Cc1ccccc1 | 5.66 | –
CCN1CCCC1CNC(=O)CN1C(=O)/C(=C/c2ccccc2F)Sc2ccccc21 (stereo not given) | 5.21 | –
Cc1ccc2c(c1)-c1onc(C(=O)NCCN3CCCCC3C)c1CO2 (stereo not given) | 5.58 | –
COc1c(C)cc2cccnc2c1N1CCCN(C(C(=O)N2CCNCC2)c2csc(C(C)C)n2)CC1 (stereo not given) | – | > 7.00
CC1CCCN(CC(O)COc2ccc3c4c(c(=O)oc3c2)CCC4)C1 (stereo not given) | 5.89 | –
CCOc1cc(NC(=S)NCCCN(C)C)c(OCC)cc1NC(=O)c1ccc(C)cc1 | 5.01 | –
CCCCN(CC)CCNC(=O)c1ccc(N2CCc3ccccc32)s1 | 5.41 | –
CCC1CCCCN1CCCNC(=O)CSc1cc(=O)n(C)c2ccc(Cl)cc12 (stereo not given) | 5.67 | –

Next, values leading:

pIC50 [1] | pIC50 [2] | SMILES
5.73 | – | COc1ccccc1C(CNC(=O)c1cc(-c2ccc(Br)cc2)on1)N1CCC(C)CC1 (stereo not given)
5.23 | – | CN(Cc1ccccc1NC(=O)/C=C/c1cnn(-c2ccccc2)c1)C1CCCCC1
5.36 | – | Cc1ccc(C(=O)Nc2ncc(CN3CCC(c4ccccc4)C3)s2)cc1 (stereo not given)
– | 5.32 | CCc1ccc(NC(=O)CSc2nc3ccccc3c(=O)n2CCCC(=O)NCN2CCOCC2)cc1
– | > 6.00 | COc1ccc2c(c1)c1c(cnn1CC(=O)NCCN(C)C1CCCCC1)c(=O)n2C
4.94 | – | O=C(NCCCN(Cc1ccco1)C1CCCC1)c1cc2c(s1)-c1ccccc1SC2
5.28 | – | CC1CCCCN1CCNC(=O)c1cc2c(s1)-c1ccc(Cl)cc1SC2 (stereo not given)
5.53 | – | Cc1ccc2c(c1)-c1onc(C(=O)NCCCN3CC(C)CC(C)C3)c1CO2 (stereo not given)
5.00 | – | CCN1CCc2nc3sc(C(=O)N4CCc5ccccc5C4)c(N)c3cc2C1
